{
  "source": "patent US6835748B2",
  "about": "“Treatment of ocular disorders” (priority 1999, dated 2004)",
  "assay_type_in_all_cases": "in vivo, rabbit",
  "key": {"[1]": {"system": "normotensive adult rabbits", "assay": "IOP measurement (TonoPen XL) after a single topical 50-μL drop in rabbits", "method": "(§1) Male and female adult brown burgundy rabbits (2.6-4.4 kg) are used in this study. Animals are kept in individual cages under well-defined and standardized conditions (humidity and temperature controlled room, 13 h light/11 h dark cycle) with standard dry food and water ad libitum. All animals are accustomed to the procedure of IOP measurement but only those animals that have stable records are included in the study. All experiments are conducted in accordance with the ARVO resolution for the use of animals in ophthalmic and vision research and are approved by the Federal and Local Ethical and Agricultural Committees.\n(§2) Solutions of a test drug are freshly prepared before each experiment by dissolution in sterile balanced salt solution (BSS) (Alcon Pharmaceuticals Ltd, Forth Worth, Tex., USA) at the required concentrations under sterile conditions. One 50-μL drop of the test solution is applied topically to the right eye whereas the contralateral eye receives the carrier BSS only.\nIOP is measured with a TonoPen XL (Mentor, Norvel, Mass.), the device being calibrated daily according to the manufacturer's instructions. […] Corneas are anaesthetized by topical application of a 50-μL drop of 0.2% Novocaine prior to each IOP measurement.\nMeasurements are always initiated at the same time (8 a.m.), a sufficient recovery period of at least 7 days is provided for the animals between the experiments. Control readings are taken 10 minutes before instillation of the test drug to the right eye and of the vehicle to the left one. IOP is recorded at 1-hour intervals for the ensuing 8 hours. Baseline measurements are likewise performed hourly in all animals prior to treatment, for monitoring of diurnal rhythms. (9)\nData are analyzed according to the Mann-Whitney U-test. IOP values recorded before and after application of Rivastigmine or the drug vehicle are compared in the same eye, differences with a first order error of P<0.05 being considered as statistically significant."}, "[2]": {"system": "normotensive adult rabbits", "assay": "Pupil diameter measurement", "details": "topical 1%, 2%, 5% solutions", "method": "as §1, §2\nPupil diameter is measured horizontally in both eyes using a pupil gauge closely applied to the cornea under diffuse illumination conditions."}, "[3]": {"system": "normotensive adult rabbits", "assay": "Slit-lamp examination (local tolerability)", "details": "topical 1%, 2%, 5% solutions; before and 4 and 8 hours after administration", "method": "as §1, §2\nSlit-lamp biomicroscopy is performed by a trained ophthalmologist before drug administration and 4 and 8 hours thereafter. Eyes are controlled for conjunctival redness and discharge, for integrity of the corneal epithelium and for the absence or presence of flare (protein in the anterior chamber being an indication of blood aqueous barrier breakdown)."}},
  "data": [
    {"compound": "CCN(C)C(=O)Oc1cccc(C(C)N(C)C)c1", "note": "(centres unmarked) [Rivastigmine]", "values": [
      {"measurement": "Time of maximal mean decrease in IOP, treated eye", "setting": "[1]; 1% solution", "result": 5, "unit": "h"},
      {"measurement": "Duration of significant IOP-lowering effect, treated eyes", "setting": "[1]; 1% solution (longest effect)", "result": 5, "unit": "h"},
      {"measurement": "IOP, left eye (untreated, vehicle)", "setting": "[1]; 1% solution applied to contralateral right eye, n=8, time 0 hrs (control reading before instillation)", "result": 12.0, "unit": "mm"},
      {"measurement": "Time of maximal mean decrease in IOP, untreated eye", "setting": "[1]; 1% solution to contralateral eye", "result": 4, "unit": "h"},
      {"measurement": "IOP, left eye (untreated, vehicle)", "setting": "[1]; 1% solution to contralateral eye, time 1 hrs", "result": 11.6, "unit": "mm"},
      {"measurement": "IOP, left eye (untreated, vehicle)", "setting": "[1]; 1% solution to contralateral eye, time 2 hrs", "result": 11.2, "unit": "mm"},
      {"measurement": "IOP, left eye (untreated, vehicle)", "setting": "[1]; 1% solution to contralateral eye, time 3 hrs", "result": 11.1, "unit": "mm"},
      {"measurement": "IOP, left eye (untreated, vehicle)", "setting": "[1]; 1% solution to contralateral eye, time 4 hrs", "result": 10.2, "unit": "mm"},
      {"measurement": "IOP, left eye (untreated, vehicle)", "setting": "[1]; 1% solution to contralateral eye, time 5 hrs", "result": 11.0, "unit": "mm"},
      {"measurement": "IOP, left eye (untreated, vehicle)", "setting": "[1]; 1% solution to contralateral eye, time 6 hrs", "result": 10.7, "unit": "mm"},
      {"measurement": "IOP, left eye (untreated, vehicle)", "setting": "[1]; 1% solution to contralateral eye, time 7 hrs", "result": 11.1, "unit": "mm"},
      {"measurement": "IOP, left eye (untreated, vehicle)", "setting": "[1]; 1% solution to contralateral eye, time 8 hrs", "result": 11.4, "unit": "mm"},
      {"measurement": "IOP, right eye (treated)", "setting": "[1]; 1% solution, 50-μL drop topical, n=8, time 0 hrs (control reading before instillation)", "result": 12.3, "unit": "mm"},
      {"measurement": "Maximal mean decrease in IOP, treated eye", "setting": "[1]; 1% solution, 5 hours after application", "result": "2.6±1.2", "unit": "mm Hg"},
      {"measurement": "IOP, right eye (treated)", "setting": "[1]; 1% solution, time 1 hrs", "result": 12.0, "unit": "mm"},
      {"measurement": "IOP, right eye (treated)", "setting": "[1]; 1% solution, time 2 hrs", "result": 11.2, "unit": "mm"},
      {"measurement": "IOP, right eye (treated)", "setting": "[1]; 1% solution, time 3 hrs", "result": 10.8, "unit": "mm"},
      {"measurement": "IOP, right eye (treated)", "setting": "[1]; 1% solution, time 4 hrs", "result": 10.5, "unit": "mm"},
      {"measurement": "IOP, right eye (treated)", "setting": "[1]; 1% solution, time 5 hrs", "result": 10.1, "unit": "mm"},
      {"measurement": "IOP, right eye (treated)", "setting": "[1]; 1% solution, time 6 hrs", "result": 11.1, "unit": "mm"},
      {"measurement": "IOP, right eye (treated)", "setting": "[1]; 1% solution, time 7 hrs", "result": 11.5, "unit": "mm"},
      {"measurement": "IOP, right eye (treated)", "setting": "[1]; 1% solution, time 8 hrs", "result": 11.6, "unit": "mm"},
      {"measurement": "Time of maximal mean decrease in IOP, treated eye", "setting": "[1]; 2% solution", "result": 3, "unit": "h"},
      {"measurement": "IOP, left eye (untreated, vehicle)", "setting": "[1]; 2% solution applied to contralateral right eye, n=4, time 0 hrs (control reading before instillation)", "result": 11.2, "unit": "mm"},
      {"measurement": "Time of maximal mean decrease in IOP, untreated eye", "setting": "[1]; 2% solution to contralateral eye", "result": 3, "unit": "h"},
      {"measurement": "IOP, left eye (untreated, vehicle)", "setting": "[1]; 2% solution to contralateral eye, time 1 hrs", "result": 11.9, "unit": "mm"},
      {"measurement": "IOP, left eye (untreated, vehicle)", "setting": "[1]; 2% solution to contralateral eye, time 2 hrs", "result": 11.2, "unit": "mm"},
      {"measurement": "IOP, left eye (untreated, vehicle)", "setting": "[1]; 2% solution to contralateral eye, time 3 hrs", "result": 10.2, "unit": "mm"},
      {"measurement": "IOP, left eye (untreated, vehicle)", "setting": "[1]; 2% solution to contralateral eye, time 4 hrs", "result": 12.3, "unit": "mm"},
      {"measurement": "IOP, left eye (untreated, vehicle)", "setting": "[1]; 2% solution to contralateral eye, time 5 hrs", "result": 11.5, "unit": "mm"},
      {"measurement": "IOP, left eye (untreated, vehicle)", "setting": "[1]; 2% solution to contralateral eye, time 6 hrs", "result": 11.2, "unit": "mm"},
      {"measurement": "IOP, left eye (untreated, vehicle)", "setting": "[1]; 2% solution to contralateral eye, time 7 hrs", "result": 11.0, "unit": "mm"},
      {"measurement": "IOP, left eye (untreated, vehicle)", "setting": "[1]; 2% solution to contralateral eye, time 8 hrs", "result": 13.0, "unit": "mm"},
      {"measurement": "IOP, right eye (treated)", "setting": "[1]; 2% solution, 50-μL drop topical, n=4, time 0 hrs (control reading before instillation)", "result": 11.5, "unit": "mm"},
      {"measurement": "Maximal mean decrease in IOP, treated eye", "setting": "[1]; 2% solution, 3 hours after application", "result": "2.2±0.8", "unit": "mm Hg"},
      {"measurement": "IOP, right eye (treated)", "setting": "[1]; 2% solution, time 1 hrs", "result": 11.5, "unit": "mm"},
      {"measurement": "IOP, right eye (treated)", "setting": "[1]; 2% solution, time 2 hrs", "result": 11.0, "unit": "mm"},
      {"measurement": "IOP, right eye (treated)", "setting": "[1]; 2% solution, time 3 hrs", "result": 9.2, "unit": "mm"},
      {"measurement": "IOP, right eye (treated)", "setting": "[1]; 2% solution, time 4 hrs", "result": 10.8, "unit": "mm"},
      {"measurement": "IOP, right eye (treated)", "setting": "[1]; 2% solution, time 5 hrs", "result": 11.5, "unit": "mm"},
      {"measurement": "IOP, right eye (treated)", "setting": "[1]; 2% solution, time 6 hrs", "result": 11.1, "unit": "mm"},
      {"measurement": "IOP, right eye (treated)", "setting": "[1]; 2% solution, time 7 hrs", "result": 10.8, "unit": "mm"},
      {"measurement": "IOP, right eye (treated)", "setting": "[1]; 2% solution, time 8 hrs", "result": 12.0, "unit": "mm"},
      {"measurement": "Time of maximal mean decrease in IOP, treated eye", "setting": "[1]; 5% solution", "result": 1, "unit": "h"},
      {"measurement": "IOP, left eye (untreated, vehicle)", "setting": "[1]; 5% solution applied to contralateral right eye, n=6, time 0 hrs (control reading before instillation)", "result": 13.4, "unit": "mm"},
      {"measurement": "Time of maximal mean decrease in IOP, untreated eye", "setting": "[1]; 5% solution to contralateral eye", "result": 1, "unit": "h"},
      {"measurement": "IOP, left eye (untreated, vehicle)", "setting": "[1]; 5% solution to contralateral eye, time 1 hrs", "result": 10.7, "unit": "mm"},
      {"measurement": "IOP, left eye (untreated, vehicle)", "setting": "[1]; 5% solution to contralateral eye, time 2 hrs", "result": 11.5, "unit": "mm"},
      {"measurement": "IOP, left eye (untreated, vehicle)", "setting": "[1]; 5% solution to contralateral eye, time 3 hrs", "result": 11.3, "unit": "mm"},
      {"measurement": "IOP, left eye (untreated, vehicle)", "setting": "[1]; 5% solution to contralateral eye, time 4 hrs", "result": 11.9, "unit": "mm"},
      {"measurement": "IOP, left eye (untreated, vehicle)", "setting": "[1]; 5% solution to contralateral eye, time 5 hrs", "result": 13.2, "unit": "mm"},
      {"measurement": "IOP, left eye (untreated, vehicle)", "setting": "[1]; 5% solution to contralateral eye, time 6 hrs", "result": 12.5, "unit": "mm"},
      {"measurement": "IOP, left eye (untreated, vehicle)", "setting": "[1]; 5% solution to contralateral eye, time 7 hrs", "result": 13.3, "unit": "mm"},
      {"measurement": "IOP, left eye (untreated, vehicle)", "setting": "[1]; 5% solution to contralateral eye, time 8 hrs", "result": 13.0, "unit": "mm"},
      {"measurement": "Significance of IOP decrease in untreated eyes", "setting": "[1]; 5% solution to contralateral eye, P<0.05, Mann-Whitney U-test", "result": "significant"},
      {"measurement": "IOP, right eye (treated)", "setting": "[1]; 5% solution, 50-μL drop topical, n=6, time 0 hrs (control reading before instillation)", "result": 13.7, "unit": "mm"},
      {"measurement": "Maximal mean decrease in IOP, treated eye", "setting": "[1]; 5% solution, 1 hour after application", "result": "3.5±1.2", "unit": "mm Hg"},
      {"measurement": "IOP, right eye (treated)", "setting": "[1]; 5% solution, time 1 hrs", "result": 10.0, "unit": "mm"},
      {"measurement": "IOP, right eye (treated)", "setting": "[1]; 5% solution, time 2 hrs", "result": 11.1, "unit": "mm"},
      {"measurement": "IOP, right eye (treated)", "setting": "[1]; 5% solution, time 3 hrs", "result": 10.8, "unit": "mm"},
      {"measurement": "IOP, right eye (treated)", "setting": "[1]; 5% solution, time 4 hrs", "result": 10.5, "unit": "mm"},
      {"measurement": "IOP, right eye (treated)", "setting": "[1]; 5% solution, time 5 hrs", "result": 12.9, "unit": "mm"},
      {"measurement": "IOP, right eye (treated)", "setting": "[1]; 5% solution, time 6 hrs", "result": 12.5, "unit": "mm"},
      {"measurement": "IOP, right eye (treated)", "setting": "[1]; 5% solution, time 7 hrs", "result": 14.0, "unit": "mm"},
      {"measurement": "IOP, right eye (treated)", "setting": "[1]; 5% solution, time 8 hrs", "result": 11.8, "unit": "mm"},
      {"measurement": "IOP effect in the treated eye (in words)", "setting": "[1]; topical 1%, 2%, 5% solutions", "result": "lowers the IOP significantiy"},
      {"measurement": "Pupil reaction in drug-treated eyes", "setting": "[2]", "result": "insignificant miotic pupil reaction"},
      {"measurement": "Local toxicity (slit-lamp: redness, discharge, corneal epithelium, flare)", "setting": "[3]", "result": "No signs of rivastigmine-related local toxicity"}
    ]}
  ]
}
